Test results reported in publication PMC10520499, “Next step in the development of mesoprogestins: the preclinical profile of EC313” (Frontiers in Endocrinology, 2023).
“And” between values parts separate entries of the source, which are not always exact repeats. Equal values may be shown once.

Tests used:
[1] = tested on: progesterone receptor (PRA, PRB) in T47D cells; assay: PR nuclear translocation in T47D cells (Western blot); assay type: cell-based, human; conditions: 100 nM, compared to Promegestone, Mifepristone or Asoprisnil
Procedure: Subsequently, progesterone receptors present in nuclear as well as cytosolic fractions were stained using Western blotting.
[…] (constitutively expressing the progesterone receptor) were treated with 100 nM of EC313 or reference compounds to activate PR. After 6h and after 24h cells were lysed, the nuclear and cytosolic fractions were separated and Western blots of these fractions were prepared.
Blots were stained for PRA and PRB as well as the housekeeping proteins GAPDH (as a marker for the cytosolic fraction) and histone H3 (as a marker for the nuclear fraction). Nuclear and cytoplasmic proteins from […] were extracted after cell stimulation with PR ligands and the nuclear and cytoplasmic fractions were analyzed for PRB and PRA content using Western blotting.

cycling guinea pigs = assay: Ovulation inhibition in cycling guinea pigs; assay type: in vivo, guinea pig; conditions: for Number of ovulations vs. number of inseminated females: cycle days 10-17
Procedure: Test compounds were administered once daily from cycle days 10-17 by s. c. injection using 0.2 mL vehicle (benzyl-benzoate/castor oil, ratio 1 + 4 v/v). The time of autopsy (day 18) was 24-48h after the expected ovulation at the end of the treatment cycle. This design permits the study of the effects of the tested compounds on the expected ovulation. Fresh CL were evidence of a recent ovulation.

human Erα = target: T1, human Erα (Homo sapiens, UniProt P03372); assay: ERα transactivation (CHO, ERE-LUC); assay type: cell-based
T1 construct: host or cells: CHO, transient co-transfection
Procedure: The CHO cell line was selected to express estrogen α and β protein and the gene expression under the tested compounds stimulation was analyzed. The co-transfection with vector encoding the human full-length steroid receptors hERα and hERβ and reporter vector ERE/LUC was performed. Transient and stable transfectants with protein overexpression were induced by tested compounds (17β-estradiol or EC313) or the mixture: estradiol and appropriate range of concentration of EC313. Agonist and antagonist properties of EC313 toward tested receptor ERα and ERβ were analyzed using luminescence detection.
Plasmid included vectors coding sequences for the receptor as well as the reporter gene. […]
The ability of EC313 to agonize and/or antagonize ER receptor expression was analyzed in the following test system: co-transfected CHO cells were stimulated with estradiol (0.009 nM - 1200 nM) and EC313 (0.009 nM - 1200 nM) for detection agonistic activity. The antagonistic activity was assessed during the competitive interaction between EC313 (0.009 nM - 1200nM) and an appropriate concentration of estradiol (see Table 3 ). […] After incubating the cells for 24h with the tested compounds, the luminescent signal generated by the luciferase activity was detected.

GR = target: T2, GR (Homo sapiens, UniProt P04150); assay: Competitive binding, full length human glucocorticoid receptor; design: made in house; host or cells: HI (Hi5) insect cells, baculovirus; cellular lysate
T2 sequence (P04150 1-777): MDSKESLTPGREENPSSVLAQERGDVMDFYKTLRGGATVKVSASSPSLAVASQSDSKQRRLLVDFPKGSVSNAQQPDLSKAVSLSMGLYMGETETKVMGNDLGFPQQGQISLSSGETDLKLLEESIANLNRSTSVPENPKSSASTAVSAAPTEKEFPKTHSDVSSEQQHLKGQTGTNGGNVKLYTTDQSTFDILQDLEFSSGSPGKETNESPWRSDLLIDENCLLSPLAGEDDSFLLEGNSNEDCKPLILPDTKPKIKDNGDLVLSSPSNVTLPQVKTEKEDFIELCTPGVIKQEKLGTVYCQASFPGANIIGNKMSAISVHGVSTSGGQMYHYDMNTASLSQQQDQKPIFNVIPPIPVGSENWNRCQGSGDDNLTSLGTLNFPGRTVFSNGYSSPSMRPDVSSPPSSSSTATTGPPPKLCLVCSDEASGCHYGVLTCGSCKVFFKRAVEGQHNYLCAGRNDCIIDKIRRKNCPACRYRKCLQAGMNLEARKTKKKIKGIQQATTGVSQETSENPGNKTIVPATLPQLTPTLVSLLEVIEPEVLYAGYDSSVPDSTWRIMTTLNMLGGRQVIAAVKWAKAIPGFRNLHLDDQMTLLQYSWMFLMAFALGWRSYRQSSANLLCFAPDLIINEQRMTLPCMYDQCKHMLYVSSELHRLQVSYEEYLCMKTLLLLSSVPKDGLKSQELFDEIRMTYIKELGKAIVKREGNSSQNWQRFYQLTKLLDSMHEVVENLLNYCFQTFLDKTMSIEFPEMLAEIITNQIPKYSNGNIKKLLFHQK
Procedure: The study aimed to characterize the competitive binding profile of EC313 to relevant human nuclear receptors. For the assays, commercially available ‘ligand binding domain’ proteins were purchased (Thermo Fisher Scientific). In addition, the full-length receptor proteins were expressed in transfected HI insect cells using the `Bac-to-bac Baculovirus expression system´ (Thermo Fisher Scientific). Cellular lysates served as receptor preparation. Receptor protein preparations were incubated with tritiated reference ligands and EC313 or reference steroids at concentrations between 0.1 and 1000 nM for 2h at 4°C to reach equilibrium. Subsequently, unbound steroids were adsorbed to dextran-coated charcoal (Sigma Aldrich), separated by filtration, and the remaining radioactivity was quantified in a ß-counter (Perkin Elmer). Displacement curves were fitted using the GraphPad Prism 7 free version to obtain EC50 values. Relative binding affinity (RBA [%], (C50ref/C50test)*100) and the competition coefficient (C50test/C50ref) were used to describe the relative binding potency of EC313 compared to the reference ligands.

T1 sequence (P03372 whole entry): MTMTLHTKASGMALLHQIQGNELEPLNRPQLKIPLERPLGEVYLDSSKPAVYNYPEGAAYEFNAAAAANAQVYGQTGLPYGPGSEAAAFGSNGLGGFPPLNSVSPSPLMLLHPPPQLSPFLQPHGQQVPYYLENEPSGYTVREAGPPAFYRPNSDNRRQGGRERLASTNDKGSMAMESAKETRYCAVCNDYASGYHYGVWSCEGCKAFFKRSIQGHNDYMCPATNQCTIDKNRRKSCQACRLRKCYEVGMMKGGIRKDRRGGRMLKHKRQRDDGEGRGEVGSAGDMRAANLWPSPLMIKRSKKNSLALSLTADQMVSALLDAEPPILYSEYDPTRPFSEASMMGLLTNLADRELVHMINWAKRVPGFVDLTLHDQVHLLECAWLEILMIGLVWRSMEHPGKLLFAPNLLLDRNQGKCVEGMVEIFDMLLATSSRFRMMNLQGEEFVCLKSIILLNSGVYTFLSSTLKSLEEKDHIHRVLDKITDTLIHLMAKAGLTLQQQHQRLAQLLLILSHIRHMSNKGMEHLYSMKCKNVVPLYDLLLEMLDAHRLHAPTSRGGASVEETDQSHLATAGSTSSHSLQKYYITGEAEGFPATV

C[C@]12C[C@H](c3ccc(-c4ccoc4)cc3)C3=C4CCC(=O)C=C4CC[C@H]3[C@@H]1CC[C@]21OCCC1=C(F)F [EC313]
receptors retained in the nuclear fraction after 24 hours [1]: retained more receptors in the nuclear fraction
Number of ovulations vs. number of inseminated females (cycling guinea pigs; 0.1 mg/animal/day s.c.): 1/5
Number of ovulations vs. number of inseminated females (cycling guinea pigs; 1.0 mg/animal/day s.c.): 0/5
Number of ovulations vs. number of inseminated females (cycling guinea pigs; 10.0 mg/animal/day s.c.): 0/8
inhibition of ovulation (cycling guinea pigs; 1 and 10 mg/animal/day s.c.): Full inhibition of ovulation
effects in the vaginal epithelium (cycling guinea pigs; non-pregnant guinea pigs, all tested dose levels, 0.1 to 10.0 mg/animal/day s.c.): mucification
agonistic or antagonistic activity (human Erα): no agonistic or antagonistic activity
Comp. Coefficient (GR; EC313 relative to Dexamethasone): 12 and 11.8
IC50 (GR; tritiated ligand displacement): 226 ± 9 nM
